According to PubChem BioAssay AID652108 (The Scripps Research Institute Molecular Screening Center, 2013):

Key:
Test in all cases: PubChem AID 652108
Settings in all cases: mouse tail flick latency, kappa agonist-induced antinociception
1 hour = test system: 1 hour
1 week = test system: 1 week
24 hours = test system: 24 hours

SMILES: COC(=O)c1cc(Br)cnc1N1CCC(NC2CCCCC2)C(O)C1 (configuration not stated)
- tail flick latency (1 hour): 8.07 s
- tail flick latency (1 hour; baseline latency at 0 min): 4.68 s
- tail flick latency (1 hour; latency at 30 min): 6.04 s
- tail flick latency (1 hour; latency at 60 min): 4.2 s
- tail flick latency (1 week): 12 s
- tail flick latency (1 week; baseline latency at 0 min): 3.47 s
- tail flick latency (1 week; latency at 30 min): 8.5 s
- tail flick latency (1 week; latency at 60 min): 3.25 s
- tail flick latency (24 hours): 13.4 s
- tail flick latency (24 hours; baseline latency at 0 min): 4.23 s
- tail flick latency (24 hours; latency at 30 min): 9.11 s
- tail flick latency (24 hours; latency at 60 min): 5.2 s
